For assay [1], the system named is TFF1-ERE (DNA, duplex) AGGTCACGGTGGCCA/TGGCCACCGTGACCT
Description: fluorescent intercalator displacement (FID). The settings on record: 5 mM sodium phosphate (Na+); pH 7, 25 °C; ethidium bromide displaced; DNA 16.7 μM; fit assumes KD1 = KD2; apparent.

For assay [2] the test system is unchanged. Description: NMR titration and solution structure. The following applies: 50 mM sodium phosphate (Na+); pH 7, 25 °C; bis-intercalation, each drug one strong and one weak intercalation site.

The values that follow come from article PMC4027214 (2014).

As to `Cc1cccc2nc3cccc(C(=O)NCCNCCNCCNC(=O)c4cccc5nc6cccc(C)c6nc45)c3nc12`, the KD in assay [1] was ~ 9.65 × 10^−7 M. Further, in assay [2], the binding result is on record as “yes”.
